Results from US11006631B2, “Substituted pyrimidinyloxy pyridine derivatives as herbicides” (FMC Corporation, priority 2015, dated 2021).

Tests used:
Format in all cases: in vivo
[1] = system: morningglory (Ipomoea spp.); assay: Test A preemergence, morningglory; settings: 0 to 100 scale
Description: (§1) Seeds of plant species selected from bamyardgrass (Echinochloa crus-galli), kochia (Kochia scoparia), ragweed (common ragweed, Ambrosia elatior), ryegrass, Italian (Italian ryegrass, Lolium multiflorum), foxtail, giant (giant foxtail, Setaria faberii), pigweed (Amaranthus retroflexus), crabgrass, large (large crabgrass, Digitaria sanguinalis), momingglory (Ipomoea spp.), velvetleaf (Abutilon theophrasti), wheat (Triticum aestivum), and corn (Zea mays) were planted into a blend of loam soil and sand and treated preemergence with a directed soil spray using test chemicals formulated in a non-phytotoxic solvent mixture which included a surfactant. At the same time, plants selected from these crop and weed species and also blackgrass (Alopecurus myosuroides), and galium (catchweed bedstraw, Galium aparine) were planted in pots containing the same blend of loam soil and sand and treated with postemergence applications of test chemicals formulated in the same manner. Plants ranged in height from 2 to 10 cm and were in the one- to two-leaf stage for the postemergence treatment. Treated plants and untreated controls were maintained in a greenhouse for approximately 10 days, after which time all treated plants were compared to untreated controls and visually evaluated for injury. Plant response ratings, summarized in Table A, are based on a 0 to 100 scale where 0 is no effect and 100 is complete control. A dash (-) response means no test result.

[2] = system: velvetleaf (Abutilon theophrasti); assay: Test A postemergence, velvetleaf; settings: 0 to 100 scale
Description: as §1

[3] = system: wheat (Triticum aestivum); assay: Test A postemergence, wheat; settings: 0 to 100 scale
Description: as §1

[4] = system: crabgrass, large (large crabgrass, Digitaria sanguinalis); assay: Test A preemergence, crabgrass, large; settings: 0 to 100 scale
Description: as §1

[5] = system: pigweed (Amaranthus retroflexus); assay: Test A postemergence, pigweed; settings: 0 to 100 scale
Description: as §1

[6] = system: wheat (Triticum aestivum); assay: Test A preemergence, wheat; settings: 0 to 100 scale
Description: as §1

[7] = system: ducksalad (Heteranthera limosa); assay: Test B flooded paddy test, ducksalad; settings: Flood, 250 g ai/ha; scale of 0 to 100
Experimental: (§2) Plant species in the flooded paddy test selected from rice (Oryza sativa), sedge, umbrella (small-flower umbrella sedge, Cyperus difformis), ducksalad (Heteranthera limosa), and barnyardgrass (Echinochloa crus-galli) were grown to the 2-leaf stage for testing. At time of treatment, test pots were flooded to 3 cm above the soil surface, treated by application of test compounds directly to the paddy water, and then maintained at that water depth for the duration of the test. Treated plants and controls were maintained in a greenhouse for 13 to 15 days, after which time all species were compared to controls and visually evaluated. Plant response ratings, summarized in Table B, are based on a scale of 0 to 100 where 0 is no effect and 100 is complete control. A dash (-) response means no test result.

[8] = system: barnyardgrass (Echinochloa crus-galli); assay: Test A postemergence, barnyardgrass; settings: 0 to 100 scale
Description: as §1

rice (Oryza sativa) = assay: Test B flooded paddy test, rice; settings: Flood, 250 g ai/ha; scale of 0 to 100
Experimental: as §2

[9] = system: pigweed (Amaranthus retroflexus); assay: Test A preemergence, pigweed; settings: 0 to 100 scale
Description: as §1

[10] = system: sedge, umbrella (small-flower umbrella sedge, Cyperus difformis); assay: Test B flooded paddy test, sedge, umbrella; settings: Flood, 250 g ai/ha; scale of 0 to 100
Experimental: as §2

[11] = system: morningglory (Ipomoea spp.); assay: Test A postemergence, morningglory; settings: 0 to 100 scale
Description: as §1

[12] = system: barnyardgrass (Echinochloa crus-galli); assay: Test A preemergence, barnyardgrass; settings: 0 to 100 scale
Description: as §1

[13] = system: velvetleaf (Abutilon theophrasti); assay: Test A preemergence, velvetleaf; settings: 0 to 100 scale
Description: as §1

[14] = system: crabgrass, large (large crabgrass, Digitaria sanguinalis); assay: Test A postemergence, crabgrass, large; settings: 0 to 100 scale
Description: as §1

[15] = system: foxtail, giant (giant foxtail, Setaria faberii); assay: Test A postemergence, foxtail, giant; settings: 0 to 100 scale
Description: as §1

corn (Zea mays) [16] = assay: Test A postemergence, corn; settings: 0 to 100 scale
Description: as §1

corn (Zea mays) [17] = assay: Test A preemergence, corn; settings: 0 to 100 scale
Description: as §1

[18] = system: foxtail, giant (giant foxtail, Setaria faberii); assay: Test A preemergence, foxtail, giant; settings: 0 to 100 scale
Description: as §1

[19] = system: barnyardgrass (Echinochloa crus-galli); assay: Test B flooded paddy test, barnyardgrass; settings: Flood, 250 g ai/ha; scale of 0 to 100
Experimental: as §2

kochia (Kochia scoparia) [20] = assay: Test A preemergence, kochia; settings: 0 to 100 scale
Description: as §1

kochia (Kochia scoparia) [21] = assay: Test A postemergence, kochia; settings: 0 to 100 scale
Description: as §1

[22] = system: ragweed (common ragweed, Ambrosia elatior); assay: Test A postemergence, ragweed; settings: 0 to 100 scale
Description: as §1

[23] = system: galium (catchweed bedstraw, Galium aparine); assay: Test A postemergence, galium; settings: 0 to 100 scale
Description: as §1

[24] = system: ryegrass, Italian (Italian ryegrass, Lolium multiflorum); assay: Test A preemergence, ryegrass, Italian; settings: 0 to 100 scale
Description: as §1

[25] = system: ragweed (common ragweed, Ambrosia elatior); assay: Test A preemergence, ragweed; settings: 0 to 100 scale
Description: as §1

[26] = system: ryegrass, Italian (Italian ryegrass, Lolium multiflorum); assay: Test A postemergence, ryegrass, Italian; settings: 0 to 100 scale
Description: as §1

[27] = system: blackgrass (Alopecurus myosuroides); assay: Test A postemergence, blackgrass; settings: 0 to 100 scale
Description: as §1

Clc1cnc(Oc2cccnc2-n2cc(Cl)cn2)nc1 [Compound 2, 5-chloro-2-[[2-(4-chloro-1H-pyrazol-1-yl)-3-pyridinyl]oxy]pyrimidine]
Plant response rating, Morningglory ([1]; 125 g ai/ha): 0 | Plant response rating, Morningglory ([1]; 500 g ai/ha): 0 | Plant response rating, Velvetleaf ([2]; 125 g ai/ha): 20 | Plant response rating, Velvetleaf ([2]; 500 g ai/ha): 70 | Plant response rating, Wheat ([3]; 125 g ai/ha): 10 | Plant response rating, Wheat ([3]; 500 g ai/ha): 20 | Plant response rating, Crabgrass, Large ([4]; 500 g ai/ha): 100 | Plant response rating, Pigweed ([5]; 125 g ai/ha): 100 | Plant response rating, Pigweed ([5]; 500 g ai/ha): 100 | Plant response rating, Wheat ([6]; 125 g ai/ha): 0 | Plant response rating, Wheat ([6]; 500 g ai/ha): 10 | Plant response rating, Ducksalad [7]: 80 | Plant response rating, Barnyardgrass ([8]; 125 g ai/ha): 0 | Plant response rating, Barnyardgrass ([8]; 500 g ai/ha): 20 | Plant response rating, Rice (rice (Oryza sativa)): 0 | Plant response rating, Pigweed ([9]; 125 g ai/ha): 70 | Plant response rating, Pigweed ([9]; 500 g ai/ha): 90 | Plant response rating, Sedge, Umbrella [10]: 75 | Plant response rating, Morningglory ([11]; 125 g ai/ha): 40 | Plant response rating, Morningglory ([11]; 500 g ai/ha): 80 | Plant response rating, Barnyardgrass ([12]; 125 g ai/ha): 0 | Plant response rating, Barnyardgrass ([12]; 500 g ai/ha): 40 | Plant response rating, Velvetleaf ([13]; 125 g ai/ha): 10 | Plant response rating, Velvetleaf ([13]; 500 g ai/ha): 30 | Plant response rating, Crabgrass, Large ([14]; 125 g ai/ha): 10 | Plant response rating, Crabgrass, Large ([14]; 500 g ai/ha): 40 | Plant response rating, Foxtail, Giant ([15]; 125 g ai/ha): 0 | Plant response rating, Foxtail, Giant ([15]; 500 g ai/ha): 30 | Plant response rating, Corn (corn (Zea mays) [16]; 125 g ai/ha): 0 | Plant response rating, Corn (corn (Zea mays) [16]; 500 g ai/ha): 10 | Plant response rating, Corn (corn (Zea mays) [17]; 125 g ai/ha): 0 | Plant response rating, Corn (corn (Zea mays) [17]; 500 g ai/ha): 0 | Plant response rating, Foxtail, Giant ([18]; 125 g ai/ha): 10 | Plant response rating, Foxtail, Giant ([18]; 500 g ai/ha): 80 | Plant response rating, Barnyardgrass [19]: 0

Clc1cnc(Oc2cccnc2-n2cc(-c3ccccc3)cn2)nc1 [Compound 4]
Plant response rating, Morningglory ([1]; 125 g ai/ha): 0 | Plant response rating, Morningglory ([1]; 500 g ai/ha): 0 | Plant response rating, Velvetleaf ([2]; 125 g ai/ha): 0 | Plant response rating, Velvetleaf ([2]; 500 g ai/ha): 0 | Plant response rating, Wheat ([3]; 125 g ai/ha): 0 | Plant response rating, Wheat ([3]; 500 g ai/ha): 0 | Plant response rating, Crabgrass, Large ([4]; 125 g ai/ha): 0 | Plant response rating, Crabgrass, Large ([4]; 500 g ai/ha): 0 | Plant response rating, Pigweed ([5]; 125 g ai/ha): 20 | Plant response rating, Pigweed ([5]; 500 g ai/ha): 70 | Plant response rating, Wheat ([6]; 125 g ai/ha): 0 | Plant response rating, Wheat ([6]; 500 g ai/ha): 0 | Plant response rating, Ducksalad [7]: 0 | Plant response rating, Barnyardgrass ([8]; 125 g ai/ha): 0 | Plant response rating, Barnyardgrass ([8]; 500 g ai/ha): 20 | Plant response rating, Rice (rice (Oryza sativa)): 10 | Plant response rating, Pigweed ([9]; 125 g ai/ha): 0 | Plant response rating, Pigweed ([9]; 500 g ai/ha): 0 | Plant response rating, Sedge, Umbrella [10]: 70 | Plant response rating, Morningglory ([11]; 125 g ai/ha): 0 | Plant response rating, Morningglory ([11]; 500 g ai/ha): 10 | Plant response rating, Barnyardgrass ([12]; 125 g ai/ha): 0 | Plant response rating, Barnyardgrass ([12]; 500 g ai/ha): 0 | Plant response rating, Velvetleaf ([13]; 125 g ai/ha): 0 | Plant response rating, Velvetleaf ([13]; 500 g ai/ha): 0 | Plant response rating, Crabgrass, Large ([14]; 125 g ai/ha): 0 | Plant response rating, Crabgrass, Large ([14]; 500 g ai/ha): 0 | Plant response rating, Foxtail, Giant ([15]; 125 g ai/ha): 0 | Plant response rating, Foxtail, Giant ([15]; 500 g ai/ha): 0 | Plant response rating, Corn (corn (Zea mays) [16]; 125 g ai/ha): 0 | Plant response rating, Corn (corn (Zea mays) [16]; 500 g ai/ha): 30 | Plant response rating, Corn (corn (Zea mays) [17]; 125 g ai/ha): 0 | Plant response rating, Corn (corn (Zea mays) [17]; 500 g ai/ha): 0 | Plant response rating, Foxtail, Giant ([18]; 125 g ai/ha): 0 | Plant response rating, Foxtail, Giant ([18]; 500 g ai/ha): 0

[O-][n+]1cccc(Oc2ncc(Cl)cn2)c1-c1cc(C(F)F)on1 [Compound 8, 5-chloro-2-[[2-[5-(difluoromethyl)-3-isoxazolyl]-1-oxido-3-pyridinyl]oxy]pyrimidine]
Plant response rating, Kochia (kochia (Kochia scoparia) [20]; 31 g ai/ha): 0 | Plant response rating, Kochia (kochia (Kochia scoparia) [20]; 125 g ai/ha): 40 | Plant response rating, Kochia (kochia (Kochia scoparia) [21]; 31 g ai/ha): 40 | Plant response rating, Kochia (kochia (Kochia scoparia) [21]; 125 g ai/ha): 70 | Plant response rating, Wheat ([3]; 31 g ai/ha): 10 | Plant response rating, Wheat ([3]; 125 g ai/ha): 20 | Plant response rating, Pigweed ([5]; 31 g ai/ha): 50 | Plant response rating, Pigweed ([5]; 125 g ai/ha): 70 | Plant response rating, Ducksalad [7]: 40 | Plant response rating, Barnyardgrass ([8]; 31 g ai/ha): 0 | Plant response rating, Barnyardgrass ([8]; 125 g ai/ha): 10 | Plant response rating, Rice (rice (Oryza sativa)): 0 | Plant response rating, Ragweed ([22]; 31 g ai/ha): 30 | Plant response rating, Ragweed ([22]; 125 g ai/ha): 50 | Plant response rating, Galium ([23]; 31 g ai/ha): 40 | Plant response rating, Galium ([23]; 125 g ai/ha): 60 | Plant response rating, Pigweed ([9]; 31 g ai/ha): 40 | Plant response rating, Pigweed ([9]; 125 g ai/ha): 90 | Plant response rating, Sedge, Umbrella [10]: 0 | Plant response rating, Barnyardgrass ([12]; 31 g ai/ha): 0 | Plant response rating, Barnyardgrass ([12]; 125 g ai/ha): 0 | Plant response rating, Ryegrass, Italian ([24]; 31 g ai/ha): 0 | Plant response rating, Ryegrass, Italian ([24]; 125 g ai/ha): 0 | Plant response rating, Ragweed ([25]; 31 g ai/ha): 0 | Plant response rating, Ragweed ([25]; 125 g ai/ha): 0 | Plant response rating, Foxtail, Giant ([15]; 31 g ai/ha): 0 | Plant response rating, Foxtail, Giant ([15]; 125 g ai/ha): 10 | Plant response rating, Corn (corn (Zea mays) [16]; 31 g ai/ha): 0 | Plant response rating, Corn (corn (Zea mays) [16]; 125 g ai/ha): 20 | Plant response rating, Ryegrass, Italian ([26]; 31 g ai/ha): 0 | Plant response rating, Ryegrass, Italian ([26]; 125 g ai/ha): 0 | Plant response rating, Foxtail, Giant ([18]; 31 g ai/ha): 0 | Plant response rating, Foxtail, Giant ([18]; 125 g ai/ha): 10 | Plant response rating, Blackgrass ([27]; 31 g ai/ha): 0 | Plant response rating, Blackgrass ([27]; 125 g ai/ha): 10 | Plant response rating, Barnyardgrass [19]: 0
